# Measured values reported in patent US20210290648A1, “Potentiation of B-Lactam Antibiotics and B-Lactam/B-Lactamase Inhibitor Combinations Against Multidrug and Extensively Drug-Resistant Pseudomonas Aeruginosa Using Non-Ribosomal Tobramycin-Cyclam Conjugates” (University of Manitoba, priority 2018, published 2021).
# Read-outs that look alike come from different tables or passages of the source.
# Key:
# [1] = test system: human liver carcinoma (HepG2) cells; experiment: Cytotoxicity, PrestoBlue cell viability assay; format: cell-based; details: highest concentration 50 μM, 48 h
# Experimental: Cytotoxicity Assay. Human embryonic kidney cells (HEK293) and HepG2 cells were grown in Dulbecco's modified eagle's medium supplemented with 10% fetal bovine serum in a humidified […] incubator at 37° C. Equal number of cells (100 μl of media containing ˜8000 cells) were dispersed into 96-well plates and wells with medium but no cells were used as blanks. After incubating for 24 h, […] varying concentrations of test compounds (at twice the desired concentrations) were added to each well, including the blanks. The treated cells were then incubated further for 48 h, after which PrestoBlue reagent was added to each well. The plates were then incubated for an additional hour on a nutator mixer in a 5% CO2 incubator. The fluorescence was read at […] on a SpectraMax M2 plate reader (Molecular Devices, USA). Cell viability were interpreted as previously described (55, 77). The values of blank were subtracted from each value, and the viability values of the treated samples relative to the controls with vehicle were calculated. The values for the plots are the means±standard deviation.
# [2] = test system: MRSE CAN-ICU 61589 (CAZ >32); experiment: MIC, microbroth dilution; format: cell-based; details: standalone
# Experimental: (§1) Antimicrobial Susceptibility Assay. The in vitro antimicrobial activity of all compounds/antibiotics against a panel of bacteria was evaluated by microbroth dilution method in accordance with the Clinical and Laboratory Standards Institute (CLSI) guidelines. Overnight grown bacterial cultures were diluted in saline to achieve a 0.5 McFarland turbidity, followed by 1:50 dilution in Mueller-Hinton broth (MHB) for inoculation to a final concentration of approximately 5×10^5CFU/mL. The antimicrobial agents were 2-fold serially diluted in MHB in a 96-well plate and incubated at 37° C. with equal volumes of inoculum for 18 h. The lowest concentration that prevented the visible growth of bacteria was defined as the MIC for each antimicrobial agent. The broth with or without bacterial cells was used as positive or negative control, respectively.
# [3] = test system: E. coli ATCC 25922; experiment: MIC, microbroth dilution; format: cell-based
# Experimental: as §1
# [4] = test system: MSSE CANWARD-2008 81388; experiment: MIC, microbroth dilution; format: cell-based; details: standalone
# Experimental: as §1
# [5] = test system: K. pneumoniae ATCC 13883; experiment: MIC, microbroth dilution; format: cell-based, Klebsiella pneumoniae
# Experimental: as §1
# [6] = test system: PA 101243; experiment: Checkerboard combination study / MIC; format: cell-based, Pseudomonas aeruginosa; details: PA101243
# [7] = test system: Galleria mellonella larvae; experiment: Galleria mellonella tolerability study; details: 100 mg/kg; positive control
# Experimental: In vitro and in vivo discordances have been observed in antimicrobial chemotherapy, thus, therapeutic efficacy may not necessarily be reliably extrapolated based on in vitro data alone. […] Colistin (100 mg/kg), an antibiotic well known for its toxicity towards eukaryotes, served as a positive control for this experiment while PBS served as negative control. […] Survivability was scored for a total of 4 days.
# In vivo larvae-infection model. In vivo synergistic effects were determined using Galleria mellonella infection model, as previously described (20). Briefly, worms were purchased from The Worm Lady® Live Feeder (ON, Canada), stored in their natural habitat at 16° C., and used within 10 days of delivery. The worms (average weight of 250 mg) were used for tolerability and efficacy studies. Tolerability study was performed by injecting 10 μL of antimicrobial agents only at concentrations equivalent to 100 mg/kg or 200 mg/kg. The worms (ten in each group) were incubated at 37° C. and monitored for 96 h. […] Overnight grown culture of respective MDR P. aeruginosa isolate was standardized to 0.5 McFarland standard and diluted in PBS to a final concentration of […]. 10 μL of this solution (5 CFU) was injected into each worm and incubated for 3 h at 37° C. […] Worms treated with 10 μL PBS or high concentrations of test antibiotics served as negative and positive control, respectively. The worms were incubated at 37° C. in Petri dishes lined with filter paper and scored for survivability every 6 h for up to 48 h. This experiment was repeated to give a total of thirty worms (n=30) in each case. Survival data curves were plotted using Kaplan-Meier survival analysis.
# [8] = test system: PA 91433; experiment: Checkerboard combination study / MIC; format: cell-based, Pseudomonas aeruginosa; details: PA91433
# [9] = test system: WT P. aeruginosa PAO1; experiment: Checkerboard combination study / MIC; format: cell-based, Pseudomonas aeruginosa; details: for FICI in the presence of ≤10 μM of 1: antibiotic + compound 1; for FICI in the presence of ≤10 μM of 1 / MIC of Antibiotics in the presence of ≤10 μM of 1 / FICI in the presence of ≤10 μM of 2 / MIC of Antibiotics in the presence of ≤10 μM of 2 / FICI in the presence of ≤10 μM of 3 / MIC of Antibiotics in the presence of ≤10 μM of 3 / FICI with compounds 1-3: WT PAO1; for MIC of Antibiotics in the presence of ≤10 μM of 1: antibiotic + compound 1 ≤10 μM; for FICI in the presence of ≤10 μM of 2: antibiotic + compound 2; for MIC of Antibiotics in the presence of ≤10 μM of 2: antibiotic + compound 2 ≤10 μM; for FICI in the presence of ≤10 μM of 3: antibiotic + compound 3; for MIC of Antibiotics in the presence of ≤10 μM of 3: antibiotic + compound 3 ≤10 μM; for FICI with compounds 1-3: antibiotic + compounds 1-3 at ≤10 μM (≤16 μg/mL)
# [10] = test system: panel of Gram-positive and Gram-negative bacteria; experiment: MIC, panel of Gram-positive and Gram-negative bacteria; format: cell-based; details: standalone; susceptible strains of the panel; read-out: MIC values against susceptible strains
# Experimental: as §1
# [11] = test system: E. faecalis ATCC 29212; experiment: MIC, microbroth dilution; format: cell-based; details: Enterococcus faecalis, ATCC29212, standalone, read-out: MIC
# Experimental: as §1
# [12] = test system: S. maltophilia CAN-ICU 62584; experiment: MIC, microbroth dilution; format: cell-based; details: Stenotrophomonas maltophilia, CANICU62584, standalone, read-out: MIC
# Experimental: as §1
# [13] = test system: S. pneumoniae ATCC 49619; experiment: MIC, microbroth dilution; format: cell-based; details: Streptococcus pneumoniae, ATCC49619, standalone, read-out: MIC
# Experimental: as §1
# [14] = test system: E. coli CAN-ICU 63074 (AMK 32); experiment: MIC, microbroth dilution; format: cell-based; details: Escherichia coli, standalone, read-out: MIC
# Experimental: as §1
# [15] = test system: A. baumannii CAN-ICU 63169; experiment: MIC, microbroth dilution; format: cell-based; details: Acinetobacter baumannii, CANICU63169, standalone, read-out: MIC
# Experimental: as §1
# [16] = test system: E. coli CAN-ICU 61714 (GEN-R); experiment: MIC, microbroth dilution; format: cell-based; details: Escherichia coli, standalone, read-out: MIC
# Experimental: as §1
# [17] = test system: S. aureus ATCC 29213; experiment: MIC, microbroth dilution; format: cell-based; details: Staphylococcus aureus, ATCC29213, standalone, read-out: MIC
# Experimental: as §1
# [18] = test system: E. coli CANWARD-2011 97615 (GEN-R, TOB-R, CIP-R) aac(3′)iia; experiment: MIC, microbroth dilution; format: cell-based; details: Escherichia coli
# Experimental: as §1
# [19] = test system: MRSA ATCC 33592; experiment: MIC, microbroth dilution; format: cell-based; details: Staphylococcus aureus, standalone, read-out: MIC
# Experimental: as §1
# [20] = test system: E. faecium ATCC 27270; experiment: MIC, microbroth dilution; format: cell-based; details: Enterococcus faecium, ATCC27270, standalone, read-out: MIC
# Experimental: as §1
# [21] = test system: MDR/XDR P. aeruginosa clinical isolates; experiment: MIC and checkerboard, panel of clinical isolates; format: cell-based, Pseudomonas aeruginosa
# [22] = test system: P. aeruginosa CANWARD-2011 96846 (GEN-R, TOB-R); experiment: MIC, microbroth dilution; format: cell-based, Pseudomonas aeruginosa; details: Pseudomonas aeruginosa, standalone, read-out: MIC
# Experimental: as §1
# [23] = test system: P. aeruginosa CAN-ICU 62308 (GEN-R); experiment: MIC, microbroth dilution; format: cell-based, Pseudomonas aeruginosa; details: Pseudomonas aeruginosa, standalone, read-out: MIC
# Experimental: as §1
# [24] = test system: P. aeruginosa ATCC 27853; experiment: MIC, microbroth dilution; format: cell-based, Pseudomonas aeruginosa; details: Pseudomonas aeruginosa, ATCC27853, standalone, read-out: MIC
# Experimental: as §1
compound,measurement,setting,value
5-O-(Dodecylcyclam)-tobramycin.9HCl [Compound 3],cell viability,[1],about 60%
same,MIC,[2],32 µg/mL
same,MIC,[3]; standalone,64 µg/mL
same,MIC,[4],16 µg/mL
same,MIC,[5]; standalone,64 µg/mL
Colistin,MIC of colistin,[6],1024 µg/mL
same,survival of larvae,[7],30%
same,MIC of colistin,[8],4 µg/mL
same,FICI in the presence of ≤10 μM of 1,[9],2.00
same,MIC of Antibiotics in the presence of ≤10 μM of 1,[9],2 µg/mL
same,FICI in the presence of ≤10 μM of 2,[9],2.00
same,MIC of Antibiotics in the presence of ≤10 μM of 2,[9],2 µg/mL
same,FICI in the presence of ≤10 μM of 3,[9],1.02
same,MIC of Antibiotics in the presence of ≤10 μM of 3,[9],1 µg/mL
same,FICI with compounds 1-3,[9],2
same,MIC alone,"[9]; antibiotic alone, WT PAO1 (Table 2)",Colistin (1) μg/ml
NC[C@H]1O[C@H](O[C@H]2[C@H](O)[C@@H](O[C@H]3O[C@H](CO)[C@@H](O)[C@H](N)[C@H]3O)[C@H](N)C[C@@H]2N)[C@H](N)C[C@@H]1O [Tobramycin],MIC,[10],≤ 2 µg/mL
same,MIC,[11],8 µg/mL
same,MIC,[12],> 512 µg/mL
same,MIC,[13],2 µg/mL
same,MIC,"[2]; Staphylococcus epidermidis, read-out: MIC",2 µg/mL
same,MIC,[14],8 µg/mL
same,MIC,"[3]; Escherichia coli, ATCC25922, standalone, read-out: MIC",0.5 µg/mL
same,MIC,[15],32 µg/mL
same,MIC,[16],8 µg/mL
same,MIC,[17],0.5 µg/mL
same,MIC,[4]; read-out: MIC,≤ 0.25 µg/mL
same,MIC,[18],128 µg/mL
same,MIC,[19],0.5 µg/mL
same,MIC,[20],16 µg/mL
same,FICI with aztreonam or meropenem,[21]; tobramycin-resistant MDR/XDR isolates,0.56-0.75
same,FICI with aztreonam or meropenem,[21]; tobramycin-susceptible MDR,0.75
same,MIC,[22],256 µg/mL
same,MIC,[23],16 µg/mL
same,MIC,[24],1 µg/mL
same,MIC,"[5]; Klebsiella pneumoniae, ATCC13883, standalone, read-out: MIC",≤ 0.25 µg/mL
same,MIC,"[9]; Pseudomonas aeruginosa, PAO1, 18 h, antibiotic alone, WT PAO1 (Table 2), read-out: MIC alone",1 µg/mL
same,FICI in the presence of ≤10 μM of 1,[9],1.01
same,MIC of Antibiotics in the presence of ≤10 μM of 1,[9],1 µg/mL
same,FICI in the presence of ≤10 μM of 2,[9],1.00
same,MIC of Antibiotics in the presence of ≤10 μM of 2,[9],1 µg/mL
same,FICI in the presence of ≤10 μM of 3,[9],1.01
same,MIC of Antibiotics in the presence of ≤10 μM of 3,[9],1 µg/mL
same,FICI with compounds 1-3,[9],1
same,FICI with aztreonam or meropenem,"[9]; tobramycin + aztreonam or meropenem, WT",0.75-1.00
